{"source": "PubChem BioAssay AID1250", "about": "(SRMLSC, 2008)", "note": "The source made the active and inactive calls.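 How the source made its calls: active means inhibition of at least 30% at one or more tested concentrations; inactive means inhibition below 30% at every dose.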", "data": [{"assay": "antiviral protection against BTV-induced cell death – arbovirus, BSR cells, confirmation (AID 1250)", "details": "BSR cells, Bluetongue virus CPE, ATP luminescence, 72 h; at 20 µM (top of the series)", "values": [{"smiles": "N#CC(C#N)=Cc1cc2ccccc2nc1N1CCCCC1", "CPE inhibition": "12.6% (inactive)"}, {"smiles": "COc1ccc(Cn2c(C)c(C)c(C#N)c2NC(=O)Nc2cccc(Cl)c2)cc1", "CPE inhibition": "10.6% (inactive)"}, {"smiles": "CN(C)/N=C/c1ccc(P(c2ccc(/C=N/N(C)C)o2)c2ccc(/C=N/N(C)C)o2)o1", "CPE inhibition": "10.4% (inactive)"}, {"smiles": "N#CCSc1nc(N)c(C#N)c(C2CCCCC2)c1C#N", "CPE inhibition": "6.59% (inactive)"}, {"smiles": "N#C/C(=C\\c1cn[nH]c1-c1ccc(Cl)cc1)C(=O)NCc1ccccc1", "CPE inhibition": "12.6% (inactive)"}, {"smiles": "CC(=O)NCC1=C(NC(C)=O)C2CC1C(C)(C)C2C", "note": "(stereo not given)", "CPE inhibition": "2.41% (inactive)"}, {"smiles": "CCOC(=O)C1CCCN(Cc2ccccc2Cl)C1", "note": "(stereo not given)", "CPE inhibition": "6.31% (inactive)"}, {"smiles": "CN(Cc1ccccc1)c1nc(N)c([N+](=O)[O-])c(NCc2ccccc2)n1", "CPE inhibition": "-7.95% (inactive)"}, {"smiles": "COC(=O)c1ccccc1NC(=O)C1CCN(C(=O)c2cc(OC)c(OC)c(OC)c2)CC1", "CPE inhibition": "1.96% (inactive)"}, {"smiles": "Cc1ccc2nc(NC(=O)C3CCCN(S(=O)(=O)c4cnc[nH]4)C3)sc2c1", "note": "(stereo not given)", "CPE inhibition": "22.3% (inactive)"}, {"smiles": "CCOCCCNC(=S)NCCNc1nc2c(C)cccc2cc1C#N", "CPE inhibition": "7.38% (inactive)"}, {"smiles": "CC1=Nc2ccccc2/C1=C/c1c(N)n2c(S(=O)(=O)C(C)C)nsc2nc1=O", "CPE inhibition": "19% (inactive)"}, {"smiles": "O=C(N/N=C/c1c(O)n(-c2ccccc2Cl)c(=O)c2ccccc12)c1cccnc1", "CPE inhibition": "26% (inactive)"}, {"smiles": "O=C(Nc1nnc(SCc2ccc(F)cc2)s1)c1ccc2c(c1)C(=O)N(c1ccccc1Cl)C2=O", "CPE inhibition": "20.2% (inactive)"}, {"smiles": "CCOC(=O)C(NC(=O)c1cccc(Cl)c1)(OCc1ccc(F)cc1)C(F)(F)F", "note": "(stereo not given)", "CPE inhibition": "-3.2% (inactive)"}, {"smiles": "O=C(C1CC1)N1CCN=C1SCc1ccc(Cl)cc1", "CPE inhibition": "0% (inactive)"}, {"smiles": "C/C(=N\\NC(=O)COc1ccc([N+](=O)[O-])cc1)C(C)(C)C", "CPE inhibition": "4.19% (inactive)"}, {"smiles": "C=CCNC(=O)c1onc(CSc2ccc(C(C)C)cc2)c1C(=O)O", "CPE inhibition": "1.33% (inactive)"}, {"smiles": "O=c1/c(=C/c2ccc(O)cc2)sc2n1CCCN=2", "CPE inhibition": "1.41% (inactive)"}, {"smiles": "CCSc1nnc(NC(=O)c2ccc(C)cc2)s1", "CPE inhibition": "5.39% (inactive)"}, {"smiles": "Oc1ccc(-c2n[nH]c(=S)n2-c2ccc3c(c2)OCCO3)c(O)c1", "CPE inhibition": "18.1% (inactive)"}, {"smiles": "O=C(O)c1ccc(-c2nc(-c3ccc(Cl)cc3)cs2)cc1", "CPE inhibition": "16.2% (inactive)"}, {"smiles": "O=C(c1coc(=O)c(Br)c1)N1CCCc2ccccc21", "CPE inhibition": "4.27% (inactive)"}, {"smiles": "Cc1ccccc1N=C1SCC(=O)N1Cc1ccccc1", "CPE inhibition": "3.79% (inactive)"}, {"smiles": "CC1CC1C(=O)Nc1nc(-c2ccc(Cl)s2)cs1", "note": "(stereo not given)", "CPE inhibition": "12% (inactive)"}, {"smiles": "CCN(Cc1ccncc1)Cc1c(O)ccc2cc(Br)ccc12", "CPE inhibition": "8.02% (inactive)"}, {"smiles": "Cc1ccc(C)c(N2CCN(C(=O)Cc3ccc(-n4c(=O)[nH]c5ccsc5c4=O)cc3)CC2)c1", "CPE inhibition": "13.2% (inactive)"}, {"smiles": "C=CCOc1ccc(Br)cc1/C=C1/SC(=Nc2ccc(C(=O)O)cc2)NC1=O", "CPE inhibition": "10.2% (inactive)"}, {"smiles": "O=C(CCCN1C(=O)/C(=C/c2cccs2)SC1=S)Nc1cccc(C(=O)O)c1", "CPE inhibition": "1.7% (inactive)"}, {"smiles": "CCc1nnc(NC(=O)c2cc3ccccc3oc2=O)s1", "CPE inhibition": "-0.17% (inactive)"}, {"smiles": "O=c1oc(/C=C/c2ccccc2)nc2ccccc12", "CPE inhibition": "16.6% (inactive)"}, {"smiles": "COc1ccc2[nH]c(=O)c(CN(CCCN(C)C)C(=O)Nc3ccc(F)cc3)cc2c1", "CPE inhibition": "7.66% (inactive)"}, {"smiles": "COc1ccc(Cl)cc1NC(=O)C1COc2ccccc2O1", "note": "(stereo not given)", "CPE inhibition": "26.3% (inactive)"}, {"smiles": "COc1ccc(C2=Nn3c(nnc3-c3ccncc3)SC2)cc1OC", "CPE inhibition": "20.1% (inactive)"}, {"smiles": "CSC1=NSC2=NC(=O)/C(=C\\c3cccs3)C(=N)N12", "CPE inhibition": "16% (inactive)"}, {"smiles": "Cc1ccc(O)c(-c2cc(C(=O)Nc3ccc(S(=O)(=O)Nc4nc(C)cc(C)n4)cc3)[nH]n2)c1", "CPE inhibition": "21.8% (inactive)"}, {"smiles": "Cc1[nH]c2ccccc2c1C1=CCNCC1", "CPE inhibition": "3.08% (inactive)"}, {"smiles": "FC(F)(F)c1ccc(Oc2ccc3ccccc3c2Br)nc1", "CPE inhibition": "1.17% (inactive)"}, {"smiles": "O=C(NNC(=S)NC1CCCCC1)c1ccc(Cl)s1", "CPE inhibition": "28.3% (inactive)"}, {"smiles": "CCOC(=O)c1ccc(NC(=S)N2CCSC2c2c(F)cc(F)cc2F)cc1", "note": "(stereo not given)", "CPE inhibition": "11.8% (inactive)"}, {"smiles": "C#CCSc1ncc(S(=O)(=O)c2ccccc2)c(=O)[nH]1", "CPE inhibition": "1.65% (inactive)"}, {"smiles": "Cc1ccc2nc(NC(=O)C3CCN(S(=O)(=O)c4cnc[nH]4)CC3)sc2c1", "CPE inhibition": "14% (inactive)"}, {"smiles": "Cn1cc([N+](=O)[O-])c(C(=O)NCc2cc3cc(Cl)ccc3[nH]2)n1", "CPE inhibition": "9.85% (inactive)"}, {"smiles": "O=C(O)c1cccc(-n2cccc2/C=C2/NC(=O)N(c3ccc(Cl)cc3)C2=O)c1", "CPE inhibition": "10.4% (inactive)"}, {"smiles": "Cc1ccc(C(=O)c2coc3cc([N+](=O)[O-])c(O)c([N+](=O)[O-])c23)cc1", "CPE inhibition": "18.6% (inactive)"}, {"smiles": "Cc1cccc(S(=O)(=O)Nc2nc3ccccc3nc2NCc2ccco2)c1", "CPE inhibition": "12.1% (inactive)"}, {"smiles": "CC1(C)C2CCC(C2)C1(C)NC(=O)CNCc1cccs1", "note": "(stereo not given)", "CPE inhibition": "2.65% (inactive)"}, {"smiles": "O=C(O)c1cc(N/N=C/c2ccc(OCc3ccccc3)cc2)ccc1Cl", "CPE inhibition": "19.7% (inactive)"}, {"smiles": "CCCCCc1nnc(NC(=O)C2COc3ccccc3O2)s1", "note": "(stereo not given)", "CPE inhibition": "17.9% (inactive)"}, {"smiles": "COCCn1c(SC(C)C(=O)Nc2ncc(Cl)cc2Cl)nc2ccccc21", "note": "(stereo not given)", "CPE inhibition": "21% (inactive)"}, {"smiles": "O=S(=O)(c1ccc(Oc2ccc(Cl)cc2)c(S(=O)(=O)N2CCCCC2)c1)N1CCCCC1", "CPE inhibition": "22.6% (inactive)"}, {"smiles": "CCCCN(CCCC)CC(O)COc1ccccc1Br", "note": "(stereo not given)", "CPE inhibition": "15.3% (inactive)"}, {"smiles": "COCCCNc1nc(-c2ccncc2)nc2ccccc12", "CPE inhibition": "7.45% (inactive)"}, {"smiles": "Cc1nn(C)cc1CN(C)Cc1ccc(OCC(O)CN2CCCCC2)cc1", "note": "(stereo not given)", "CPE inhibition": "11.1% (inactive)"}, {"smiles": "Cc1ccc(C)c(Cn2nnc3c(=O)[nH]c(C(=O)Nc4ccc(F)cc4)nc32)c1", "CPE inhibition": "11.9% (inactive)"}, {"smiles": "COc1ccc(CCN(C)Cc2ccc(F)cc2F)cc1OC", "CPE inhibition": "3.03% (inactive)"}, {"smiles": "CC(=O)Nc1ccc(SCC(=O)N(CCC#N)c2cc(C)cc(C)c2)cc1", "CPE inhibition": "18% (inactive)"}, {"smiles": "CCc1ccc(CCC(=O)Nc2ccccc2C(=O)O)o1", "CPE inhibition": "21.9% (inactive)"}, {"smiles": "CCOC(=O)c1c(-c2ccccc2)csc1NC(=S)N(CC)CC", "CPE inhibition": "10.8% (inactive)"}, {"smiles": "Cc1cccc(Sc2nc(-c3ccccc3)ncc2C(=O)O)c1", "CPE inhibition": "7.57% (inactive)"}, {"smiles": "O=C(Nc1nc2ccccc2s1)c1ccc(N2CCCCC2)c([N+](=O)[O-])c1", "CPE inhibition": "22.1% (inactive)"}, {"smiles": "O=C(NC(=S)NCCC1=CCCCC1)c1ccccc1Br", "CPE inhibition": "28.5% (inactive)"}, {"smiles": "Cc1ccc(S(=O)(=O)Oc2ccc(C)cc2/C=N/N=C2\\NC(=O)C(C)S2)cc1", "note": "(stereo not given)", "CPE inhibition": "25.2% (inactive)"}, {"smiles": "O=C(CSc1ccccc1)Nc1cc(Cl)ccc1Oc1ccccc1", "CPE inhibition": "3.1% (inactive)"}, {"smiles": "COc1ccc2cc(-c3cc(C(=O)O)c4ccccc4n3)ccc2c1", "CPE inhibition": "12.7% (inactive)"}, {"smiles": "Cc1ccc(C(=O)O)cc1-c1ccc(/C=C2/NC(=O)N(c3ccccc3)C2=O)o1", "CPE inhibition": "19.9% (inactive)"}, {"smiles": "CNc1ccccc1C(C)(C)c1cc(-c2cccc(OC)c2)no1", "CPE inhibition": "7.83% (inactive)"}, {"smiles": "Fc1ccccc1COc1ccc2ccccc2c1CNc1nn[nH]n1", "CPE inhibition": "11.5% (inactive)"}, {"smiles": "O=C(Nc1nc(-c2ccccc2)ns1)c1cccs1", "CPE inhibition": "15.2% (inactive)"}, {"smiles": "O=C(O)c1ccc2[nH]c3c(c2c1)CSCC3", "CPE inhibition": "2.13% (inactive)"}]}]}
